This is an account of results in US8703961B2, “Thiazole derivatives for the treatment of diseases such as cancer” (Merck Patent GmbH, priority 2009, dated 2014).

Experiment in all cases: filter binding kinase assay
What all share (format): biochemical
Common to all, as to details: derived from % inhibition at 1 μM

One assay has as its target T1, BRSK1 (Homo sapiens, UniProt Q8TDC3).
T1 construct: purchased
T1 sequence (Q8TDC3 1-778): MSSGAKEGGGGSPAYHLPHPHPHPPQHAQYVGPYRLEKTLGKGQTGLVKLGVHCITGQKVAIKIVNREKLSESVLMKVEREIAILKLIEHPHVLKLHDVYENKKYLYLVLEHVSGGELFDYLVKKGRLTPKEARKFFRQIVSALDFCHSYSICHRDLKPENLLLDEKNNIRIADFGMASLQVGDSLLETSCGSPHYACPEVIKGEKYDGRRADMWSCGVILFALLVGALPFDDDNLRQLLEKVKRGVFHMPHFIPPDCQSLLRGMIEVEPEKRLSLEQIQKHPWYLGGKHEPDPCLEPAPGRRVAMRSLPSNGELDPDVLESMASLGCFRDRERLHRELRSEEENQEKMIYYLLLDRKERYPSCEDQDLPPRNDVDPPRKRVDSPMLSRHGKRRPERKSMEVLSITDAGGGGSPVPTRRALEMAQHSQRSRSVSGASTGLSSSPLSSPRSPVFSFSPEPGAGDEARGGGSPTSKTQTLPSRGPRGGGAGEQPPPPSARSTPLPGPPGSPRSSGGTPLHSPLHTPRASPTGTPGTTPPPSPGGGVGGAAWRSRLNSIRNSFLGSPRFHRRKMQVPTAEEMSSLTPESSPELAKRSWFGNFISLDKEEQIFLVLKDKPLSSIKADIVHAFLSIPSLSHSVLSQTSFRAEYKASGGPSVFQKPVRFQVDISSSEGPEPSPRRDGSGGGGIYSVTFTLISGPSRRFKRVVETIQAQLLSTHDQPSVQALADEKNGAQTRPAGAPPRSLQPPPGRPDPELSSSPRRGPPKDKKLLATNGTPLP
As for the experimental part:
(§1) All kinase assays were carried out using the Multidrop 384 from Thermo-Fisher at room temperature in a total assay volume of 25.5 μl. 15 μl of an enzyme mix comprising enzyme and substrate in buffer are added to the test batch comprising either 0.5 μl of test substance, DMSO control or empty container. Test substances are pre-incubated in the presence of the enzyme and substrate for 5 minutes before the reaction is initiated by addition of 10 μl of ATP (concentration kinase-dependent of […]). The reaction is terminated by addition of 5 μl of orthophosphoric acid (50 mM). The test containers are then transferred onto P81 Unifilter plates by means of a “Packard Harvester” and dried in air. The dry Unifilter plates are sealed after the addition of MicroScint O, and the radioactivity is determined in a Packard Topcount NXT.

The target of another assay is T2, BRSK2 (Homo sapiens, UniProt Q8IWQ3).
T2 construct: purchased
T2 sequence (Q8IWQ3 1-736): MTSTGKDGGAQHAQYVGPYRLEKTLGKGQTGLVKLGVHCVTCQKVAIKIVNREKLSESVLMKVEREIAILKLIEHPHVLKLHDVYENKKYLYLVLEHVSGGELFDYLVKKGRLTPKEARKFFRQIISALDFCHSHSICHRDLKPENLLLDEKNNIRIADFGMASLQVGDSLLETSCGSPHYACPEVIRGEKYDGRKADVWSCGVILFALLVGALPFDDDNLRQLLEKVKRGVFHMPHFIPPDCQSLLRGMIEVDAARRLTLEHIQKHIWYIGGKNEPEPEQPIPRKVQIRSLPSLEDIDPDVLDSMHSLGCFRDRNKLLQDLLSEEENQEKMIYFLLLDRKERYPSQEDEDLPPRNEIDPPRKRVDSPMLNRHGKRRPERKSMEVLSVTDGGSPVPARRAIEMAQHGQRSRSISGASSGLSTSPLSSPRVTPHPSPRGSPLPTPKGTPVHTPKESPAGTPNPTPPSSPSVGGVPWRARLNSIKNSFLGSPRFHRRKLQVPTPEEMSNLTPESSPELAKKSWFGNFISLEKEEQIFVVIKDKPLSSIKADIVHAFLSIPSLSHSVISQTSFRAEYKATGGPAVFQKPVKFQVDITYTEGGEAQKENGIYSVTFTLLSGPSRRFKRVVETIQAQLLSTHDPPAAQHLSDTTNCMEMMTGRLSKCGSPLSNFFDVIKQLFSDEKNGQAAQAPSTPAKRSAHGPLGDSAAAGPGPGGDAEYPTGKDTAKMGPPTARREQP
On the procedure: as §1

In the next assay the target is T3, CAMK1 (Homo sapiens, UniProt Q14012).
T3 construct: purchased
As for the experimental part: as §1

The next assay addresses T4, CAMKK2 (Homo sapiens, UniProt Q96RR4).
T4 construct: purchased
On the procedure:
as §1

In the next assay the target is T5, EPHA2 (Homo sapiens, UniProt P29317).
T5 construct: purchased
T5 sequence (P29317 24-976, species assumed): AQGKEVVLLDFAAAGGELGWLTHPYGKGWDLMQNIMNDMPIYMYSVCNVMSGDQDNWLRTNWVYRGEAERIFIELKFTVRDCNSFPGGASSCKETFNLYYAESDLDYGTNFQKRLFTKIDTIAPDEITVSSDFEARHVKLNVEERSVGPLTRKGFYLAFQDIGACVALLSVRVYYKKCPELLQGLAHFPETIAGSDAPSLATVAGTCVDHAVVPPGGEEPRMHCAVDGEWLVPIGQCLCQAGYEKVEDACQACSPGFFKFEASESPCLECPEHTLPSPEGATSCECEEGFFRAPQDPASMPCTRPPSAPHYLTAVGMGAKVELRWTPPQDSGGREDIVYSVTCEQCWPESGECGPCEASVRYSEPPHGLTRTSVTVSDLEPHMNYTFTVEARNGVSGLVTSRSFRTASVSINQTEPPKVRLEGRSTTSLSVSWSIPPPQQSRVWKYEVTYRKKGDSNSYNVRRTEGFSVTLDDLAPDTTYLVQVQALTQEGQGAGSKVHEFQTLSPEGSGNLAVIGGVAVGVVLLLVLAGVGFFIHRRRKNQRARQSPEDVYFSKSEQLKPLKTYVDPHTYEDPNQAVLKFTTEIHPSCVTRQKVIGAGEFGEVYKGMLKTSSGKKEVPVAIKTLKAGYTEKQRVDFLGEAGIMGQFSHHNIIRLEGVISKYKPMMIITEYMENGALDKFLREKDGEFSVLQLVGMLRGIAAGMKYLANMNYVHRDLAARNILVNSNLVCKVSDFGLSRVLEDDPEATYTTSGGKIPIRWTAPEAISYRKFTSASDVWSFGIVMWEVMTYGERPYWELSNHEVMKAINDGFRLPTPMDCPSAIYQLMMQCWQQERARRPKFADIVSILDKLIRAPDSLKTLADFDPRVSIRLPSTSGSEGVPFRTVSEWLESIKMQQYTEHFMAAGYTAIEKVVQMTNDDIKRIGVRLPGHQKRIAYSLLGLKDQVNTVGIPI
As for the experimental part:
as §1

A further assay concerns the target T6, MAPK14 (Homo sapiens, UniProt Q16539).
T6 construct: purchased
On the procedure:
as §1

In another assay the target is T7, MAPKAPK2 (Homo sapiens, UniProt P49137).
T7 construct: purchased
T7 sequence (P49137 whole entry, species assumed): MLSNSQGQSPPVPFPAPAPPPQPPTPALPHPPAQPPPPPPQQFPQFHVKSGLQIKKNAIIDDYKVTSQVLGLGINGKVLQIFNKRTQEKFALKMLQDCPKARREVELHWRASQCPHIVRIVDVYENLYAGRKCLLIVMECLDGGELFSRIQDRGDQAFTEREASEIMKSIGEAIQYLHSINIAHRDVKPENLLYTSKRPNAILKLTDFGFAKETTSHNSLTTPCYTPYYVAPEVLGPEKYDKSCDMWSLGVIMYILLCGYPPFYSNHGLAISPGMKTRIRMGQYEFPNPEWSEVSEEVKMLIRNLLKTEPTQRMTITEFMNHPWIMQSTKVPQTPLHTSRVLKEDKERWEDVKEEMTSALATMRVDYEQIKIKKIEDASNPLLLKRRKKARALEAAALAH
As for the experimental part:
as §1

In a further assay the target is T8, MAPKAPK5 (Homo sapiens, UniProt Q8IW41).
T8 construct: purchased
T8 sequence (Q8IW41 1-473): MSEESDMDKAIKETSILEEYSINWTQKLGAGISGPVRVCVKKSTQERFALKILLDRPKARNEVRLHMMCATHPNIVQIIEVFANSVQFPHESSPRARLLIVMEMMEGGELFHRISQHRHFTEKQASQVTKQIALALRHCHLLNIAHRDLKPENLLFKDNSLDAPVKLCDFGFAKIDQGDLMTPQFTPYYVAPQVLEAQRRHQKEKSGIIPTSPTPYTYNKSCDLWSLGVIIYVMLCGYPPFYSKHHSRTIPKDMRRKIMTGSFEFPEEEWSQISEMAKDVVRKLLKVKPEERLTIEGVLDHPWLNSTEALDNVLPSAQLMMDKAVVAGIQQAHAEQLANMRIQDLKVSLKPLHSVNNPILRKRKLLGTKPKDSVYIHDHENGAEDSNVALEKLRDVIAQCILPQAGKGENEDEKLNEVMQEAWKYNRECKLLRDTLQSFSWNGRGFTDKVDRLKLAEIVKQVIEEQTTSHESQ
On the procedure: as §1

The target in another assay is T9, RIPK2 (Homo sapiens, UniProt O43353).
T9 construct: purchased
T9 sequence (O43353 whole entry, species assumed): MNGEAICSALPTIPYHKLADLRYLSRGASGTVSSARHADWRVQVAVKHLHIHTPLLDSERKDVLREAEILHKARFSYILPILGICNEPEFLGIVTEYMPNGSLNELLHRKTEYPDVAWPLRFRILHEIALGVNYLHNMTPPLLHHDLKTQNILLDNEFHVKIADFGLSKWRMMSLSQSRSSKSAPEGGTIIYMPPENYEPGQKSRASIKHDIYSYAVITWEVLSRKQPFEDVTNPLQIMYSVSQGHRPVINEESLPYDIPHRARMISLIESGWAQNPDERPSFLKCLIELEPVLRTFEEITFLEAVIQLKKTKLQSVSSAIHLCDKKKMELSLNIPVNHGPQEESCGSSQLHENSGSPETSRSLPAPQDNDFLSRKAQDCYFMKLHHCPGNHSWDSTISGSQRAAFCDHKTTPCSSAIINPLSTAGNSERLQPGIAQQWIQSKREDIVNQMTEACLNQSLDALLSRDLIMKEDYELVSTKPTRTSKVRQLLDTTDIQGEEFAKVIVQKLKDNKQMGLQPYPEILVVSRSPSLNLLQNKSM
As for the experimental part: as §1

What is called IC50 is the point on the concentration scale where inhibition reaches its midpoint. A higher IC50 goes with a need for much substance.

T6 sequence (Q16539 whole entry, species assumed): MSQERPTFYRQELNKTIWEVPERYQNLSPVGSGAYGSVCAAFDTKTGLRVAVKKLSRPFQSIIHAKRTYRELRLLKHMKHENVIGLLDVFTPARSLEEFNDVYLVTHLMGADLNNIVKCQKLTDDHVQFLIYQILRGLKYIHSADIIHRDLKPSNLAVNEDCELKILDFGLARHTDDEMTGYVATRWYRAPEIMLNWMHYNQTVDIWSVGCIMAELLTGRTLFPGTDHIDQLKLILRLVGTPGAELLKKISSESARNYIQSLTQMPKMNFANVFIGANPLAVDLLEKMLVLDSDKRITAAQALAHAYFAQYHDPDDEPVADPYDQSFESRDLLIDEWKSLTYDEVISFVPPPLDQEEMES
T4 sequence (Q96RR4 whole entry, species assumed): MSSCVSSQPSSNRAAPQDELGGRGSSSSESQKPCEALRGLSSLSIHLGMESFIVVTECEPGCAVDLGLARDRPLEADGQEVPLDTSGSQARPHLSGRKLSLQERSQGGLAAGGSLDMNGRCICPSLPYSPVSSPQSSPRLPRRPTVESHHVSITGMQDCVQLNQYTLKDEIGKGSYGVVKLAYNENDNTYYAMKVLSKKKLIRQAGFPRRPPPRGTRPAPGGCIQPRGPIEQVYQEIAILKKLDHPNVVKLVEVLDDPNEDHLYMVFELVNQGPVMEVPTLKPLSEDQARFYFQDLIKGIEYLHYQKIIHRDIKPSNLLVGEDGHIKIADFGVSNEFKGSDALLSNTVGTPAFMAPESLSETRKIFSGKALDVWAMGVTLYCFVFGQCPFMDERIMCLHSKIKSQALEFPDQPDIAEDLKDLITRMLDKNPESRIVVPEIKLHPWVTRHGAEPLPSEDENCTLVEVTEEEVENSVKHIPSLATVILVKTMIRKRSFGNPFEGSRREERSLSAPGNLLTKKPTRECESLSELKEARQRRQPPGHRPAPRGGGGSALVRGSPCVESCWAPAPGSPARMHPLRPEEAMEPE

For `c1ccc(Cc2c[nH]c3ncsc23)cc1` [Compound A7, 6-benzyl-4H-pyrrolo[2,3-d]thiazole], the IC50 on BRSK1 is 1 to 10 µM; at BRSK2, > 1 µM; at CAMK1, 1 to 10 µM; at CAMKK2, 10 to 100 µM; at EPHA2, 10 to 100 µM; on MAPK14 it was 1 to 10 µM. Also, the values for the IC50 on MAPKAPK2, on MAPKAPK5 and on RIPK2 were > 1 µM, > 1 µM and 10 to 100 µM, respectively.
Consider `Nc1ncsc1C#Cc1cnc2[nH]ccc2c1` [Compound A22, 5-(1H-pyrrolo[2,3-b]pyridin-5-ylethynyl)thiazol-4-ylamine], for which the IC50 at BRSK1 was 1 to 10 µM; on BRSK2, > 1 µM; at CAMK1 it was 10 to 100 µM; on CAMKK2 it was > 1 µM; on EPHA2, > 1 µM; on MAPK14 it was 10 to 100 µM. For the same compound, the IC50 was > 1 µM on MAPKAPK2, 10 to 100 µM on MAPKAPK5 and 1 to 10 µM at RIPK2.
Consider `CC(C)(C)OC(=O)Nc1nc(-c2ccncc2)sc1C#CCN1CCOCC1` [Compound A25, tert-butyl[5-(3-morpholin-4-ylprop-1-ynyl)-2-pyridin-4-ylthiazol-4-yl]-carbamate], for which the IC50 on BRSK1 was > 1 µM; at BRSK2, > 1 µM; at CAMK1, 1 to 10 µM; on CAMKK2, > 1 µM; on EPHA2, > 1 µM; at MAPK14, 10 to 100 µM. Besides, the IC50 on MAPKAPK2, on MAPKAPK5 and at RIPK2 was > 1 µM throughout.
Regarding `CC(C)(C)OC(=O)Nc1ncsc1C#CCN1C(=O)c2ccccc2C1=O` [Compound A26, tert-butyl{5-[3-(1,3-dioxo-1,3-dihydroisoindol-2-yl)prop-1-ynyl]-thiazol-4-yl}carbamate], the IC50 at BRSK1 was > 1 µM; at BRSK2, > 1 µM; on CAMK1, > 1 µM; on CAMKK2 it was 10 to 100 µM; on EPHA2, > 1 µM; at MAPK14, 10 to 100 µM. Further, the values for the IC50 at MAPKAPK2, on MAPKAPK5 and at RIPK2 were 10 to 100 µM, 1 to 10 µM and 10 to 100 µM, respectively.
For `Nc1ncsc1C#Cc1cccc(O)c1` [Compound A27, 3-(4-aminothiazol-5-ylethynyl)phenol], the IC50 was 1 to 10 µM at BRSK1; 10 to 100 µM at BRSK2; 1 to 10 µM on CAMK1; 10 to 100 µM at CAMKK2; > 1 µM at EPHA2; 1 to 10 µM on MAPK14. For the same compound, the IC50 lay within 10 to 100 µM on MAPKAPK2, 10 to 100 µM on MAPKAPK5 and 1 to 10 µM at RIPK2.
